Results reported in patent publication US11040987B2 (TenNor Therapeutics Limited, priority 2019, dated 2021).
Read-outs that look alike come from different tables or passages of the source.

How the values were obtained:
Assay in all cases: β-lactamase inhibition, spectrophotometric assay of nitrocefin hydrolysis
[1] = target: T1, AmpC_PA (Pseudomonas aeruginosa, UniProt P24735); type: biochemical, P. aeruginosa
T1 construct: made in house
Description: (§1) Hydrolytic inactivation of the β-lactam antibiotics by β-lactamases is the most widespread drug resistant mechanism and the most challenge clinically among Gram-negative bacterial pathogens. Based on the amino acid sequences, the β-lactamases are grouped into four classes (Ambler classification), of which A, C and D are serine hydrolases and B encompasses metallo-β-lactamases. The IC50 of selected derivatives disclosed herein (identified with reference to example number) plus six reference β-lactam or β-lactamase inhibitors were determined against 7 representative β-lactamases of various classes in a standard spectrophotometric assay of nitrocefin hydrolysis. The assay is performed in 384-well plate. The seven recombinant β-lactamases AmpC_AB (from A. baumannii), AmpC_PA (from P. aeruginosa), KPC-2, NDM-1, IMP-1, VIM-1 and OXA 24/40) are expressed and purified. The reaction buffer for class A, C and D enzymes is 100 mM Na2HPO4—KH2PO4 (pH 7.1) plus 0.005% Tween-20, and for class B enzymes 10 μM ZnSO4 is added. […] The 50 μL of reaction solution composed of 2 pM of β-lactamase, 200 μM of nitrocefin and series of 3-fold dilutions of test or control compounds are added by Cybio SELMA system into 384-plate and incubated in dark at 25° C. for 2 hours. The OD490 is read in MC SpectraMax Plus384 plate reader.

[2] = target: T2, KPC-2 (Klebsiella pneumoniae, UniProt Q9F663); type: biochemical; settings: class A β-lactamase; 200 μM nitrocefin, 25° C., 2 hours; read-out: IC50 KPC-2
T2 construct: made in house
T2 sequence (Q9F663 25-293, looked up, species assumed): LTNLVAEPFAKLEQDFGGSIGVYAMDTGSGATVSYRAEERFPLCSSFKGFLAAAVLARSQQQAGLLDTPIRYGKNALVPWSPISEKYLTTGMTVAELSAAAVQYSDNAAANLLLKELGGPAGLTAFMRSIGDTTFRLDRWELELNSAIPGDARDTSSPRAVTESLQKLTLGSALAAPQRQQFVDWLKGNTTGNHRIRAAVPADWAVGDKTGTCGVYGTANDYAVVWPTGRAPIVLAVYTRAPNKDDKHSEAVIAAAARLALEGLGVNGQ
Description: as §1

[3] = target: T3, OXA 24/40 (Acinetobacter baumannii, UniProt Q8RLA6); type: biochemical
T3 construct: made in house
T3 sequence (Q8RLA6 22-275): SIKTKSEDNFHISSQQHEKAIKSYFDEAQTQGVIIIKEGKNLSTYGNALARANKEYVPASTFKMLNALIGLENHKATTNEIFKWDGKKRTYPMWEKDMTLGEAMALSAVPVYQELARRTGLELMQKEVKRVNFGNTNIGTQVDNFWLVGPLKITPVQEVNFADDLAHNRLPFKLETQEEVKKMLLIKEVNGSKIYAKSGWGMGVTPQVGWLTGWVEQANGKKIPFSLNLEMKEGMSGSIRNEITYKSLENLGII
Description: as §1

[4] = target: T4, IMP-1 (Serratia marcescens, UniProt P52699); type: biochemical; settings: class B β-lactamase, 10 μM ZnSO4; 200 μM nitrocefin, 25° C., 2 hours; read-out: IC50 IMP-1
T4 construct: made in house
T4 sequence (P52699 19-246, looked up, species assumed): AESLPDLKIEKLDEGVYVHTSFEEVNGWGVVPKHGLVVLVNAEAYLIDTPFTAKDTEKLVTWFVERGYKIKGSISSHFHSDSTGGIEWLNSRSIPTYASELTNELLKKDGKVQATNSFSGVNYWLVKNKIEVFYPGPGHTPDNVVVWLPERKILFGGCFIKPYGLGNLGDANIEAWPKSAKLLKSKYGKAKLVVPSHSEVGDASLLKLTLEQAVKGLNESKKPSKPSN
Description: as §1

[5] = target: AmpC_AB (Acinetobacter baumannii, UniProt Q6DRA1); type: biochemical
Description: as §1

[6] = target: T5, NDM-1 (Klebsiella pneumoniae, UniProt C7C422); type: biochemical; settings: class B β-lactamase, 10 μM ZnSO4; 200 μM nitrocefin, 25° C., 2 hours; read-out: IC50 NDM-1
T5 construct: made in house
T5 sequence (C7C422 29-270, looked up, species assumed): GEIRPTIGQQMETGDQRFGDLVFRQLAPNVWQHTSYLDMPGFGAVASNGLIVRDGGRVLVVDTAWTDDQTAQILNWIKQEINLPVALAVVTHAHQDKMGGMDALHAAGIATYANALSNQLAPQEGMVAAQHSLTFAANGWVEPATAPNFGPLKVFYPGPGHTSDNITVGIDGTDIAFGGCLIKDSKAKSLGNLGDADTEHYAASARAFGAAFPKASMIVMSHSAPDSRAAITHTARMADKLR
Description: as §1

[7] = target: T6, VIM-1 (Pseudomonas aeruginosa, UniProt A0A0F7KYQ8); type: biochemical; settings: for IC50: class B β-lactamase, 10 μM ZnSO4, 200 μM nitrocefin, 25° C., 2 hours, read-out: IC50 VIM-1
T6 construct: made in house
Description: as §1

[8] = Class C β-lactamase, 200 μM nitrocefin, 25° C., 2 hours, read-out: IC50 AmpC_AB

T1 sequence (P24735 27-397): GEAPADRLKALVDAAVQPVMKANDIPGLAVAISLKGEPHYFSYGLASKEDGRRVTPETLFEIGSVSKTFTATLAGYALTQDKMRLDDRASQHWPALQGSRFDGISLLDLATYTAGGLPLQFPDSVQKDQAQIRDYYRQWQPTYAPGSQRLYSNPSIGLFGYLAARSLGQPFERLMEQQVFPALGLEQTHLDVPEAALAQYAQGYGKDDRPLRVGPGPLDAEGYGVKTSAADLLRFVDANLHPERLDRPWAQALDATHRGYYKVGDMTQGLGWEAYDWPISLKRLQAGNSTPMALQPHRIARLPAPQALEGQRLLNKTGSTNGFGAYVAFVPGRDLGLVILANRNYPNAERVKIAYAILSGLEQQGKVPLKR

Row | Compound | IC50 [1] [µM] | IC50 [2] [µM] | IC50 [3] [µM] | IC50 [4] [µM] | IC50 [5, 8] [µM] | IC50 [6] [µM] | IC50 [7] [µM] | IC50 [5] [µM] | activity against VIM-1 of class B (in words) ([7]; text summary of Table 4)
1 | C[C@]1(/C=N/NC(=O)c2cnccn2)[C@H](C(=O)O)N2C(=O)C[C@H]2S1(=O)=O [Example 19, (2S,3R,5R)-3-methyl-7-oxo-3-((E)-(2-(pyrazine-2-carbonyl)hydrazono)methyl)-4-thia-1-azabicyclo[3.2.0]heptane-2-carboxylic acid 4,4-dioxide] | 3.68 | > 200 | 2.49 | > 200 | 5.76 | > 200 | > 200 |  | 
2 | O=C(O)[C@H]1/C(=C/CO)O[C@@H]2CC(=O)N21 [Clavulanate, reference compound] | > 200 | > 200 | > 200 | > 200 |  | > 200 | > 200 | > 200 | 
3 | C[C@]1(COC(=O)NNC(=O)c2ccc(O)c(O)c2)[C@H](C(=O)O)N2C(=O)C[C@H]2S1(=O)=O [Example 69, (2S,3R,5R)-3-(((2-(3,4-dihydroxybenzoyl)hydrazinecarbonyl)oxy)methyl)-3-methyl-7-oxo-4-thia-1-azabicyclo[3.2.0]heptane-2-carboxylic acid 4,4-dioxide] | 8.6 | > 200 | 65.2 | > 200 | 3.6 | > 200 | > 200 |  | 
4 | CN(/N=C/[C@@]1(C)[C@H](C(=O)O)N2C(=O)C[C@H]2S1(=O)=O)C(=O)c1ccc(O)c(O)c1Cl [Example 3, (2S,3R,5R)-3-((E)-(2-(2-chloro-3,4-dihydroxybenzoyl)-2-methylhydrazono)methyl)-3-methyl-7-oxo-4-thia-1-azabicyclo[3.2.0]heptane-2-carboxylic acid 4,4-dioxide] | 2.42 | > 200 | 2.3 | > 200 | 0.72 | > 200 | > 200 |  | 
5 | C[C@]1(/C=N/NC(=O)c2ccc(O)c(O)c2Cl)[C@H](C(=O)O)N2C(=O)C[C@H]2S1(=O)=O [Example 23, (2S,3R,5R)-3-((E)-(2-(2-chloro-3,4-dihydroxybenzoyl)hydrazono)methyl)-3-methyl-7-oxo-4-thia-1-azabicyclo[3.2.0]heptane-2-carboxylic acid 4,4-dioxide] | 2.45 | > 200 | 3.18 | > 200 | 0.718 | > 200 | > 200 |  | 
6 | C[C@]1(Cn2ccnn2)[C@H](C(=O)O)N2C(=O)C[C@H]2S1(=O)=O [Tazobactam, reference compound] |  | 90.2 | 123 | > 200 |  | > 200 | > 200 | 23.8 | 
7 | CN(/N=C/[C@@]1(C)[C@H](C(=O)O)N2C(=O)C[C@H]2S1(=O)=O)C(=O)c1ccc(O)c(O)c1 [Example 7, (2S,3R,5R)-3-((E)-(2-(3,4-dihydroxybenzoyl)-2-methylhydrazono)methyl)-3-methyl-7-oxo-4-thia-1-azabicyclo[3.2.0]heptane-2-carboxylic acid 4,4-dioxide] | 1.52 | > 200 | 6.03 | > 200 | 0.596 | > 200 | 58.2 |  | weak activity
